According to ChEMBL document CHEMBL1134781, “1,2-Benzothiazine 1,1-dioxide P(2)-P(3) peptide mimetic aldehyde calpain I inhibitors” (J Med Chem, 2001):
pIC50: −log10 of the molar value. Values belong to the molecule of their own block, whether it stands above or below them.

How the values were obtained:
[1] = molecular target: T1, Calpain-1 catalytic subunit (Homo sapiens, UniProt P07384); experiment: Inhibitory activity against calpain-I
T1 sequence (P07384 whole entry): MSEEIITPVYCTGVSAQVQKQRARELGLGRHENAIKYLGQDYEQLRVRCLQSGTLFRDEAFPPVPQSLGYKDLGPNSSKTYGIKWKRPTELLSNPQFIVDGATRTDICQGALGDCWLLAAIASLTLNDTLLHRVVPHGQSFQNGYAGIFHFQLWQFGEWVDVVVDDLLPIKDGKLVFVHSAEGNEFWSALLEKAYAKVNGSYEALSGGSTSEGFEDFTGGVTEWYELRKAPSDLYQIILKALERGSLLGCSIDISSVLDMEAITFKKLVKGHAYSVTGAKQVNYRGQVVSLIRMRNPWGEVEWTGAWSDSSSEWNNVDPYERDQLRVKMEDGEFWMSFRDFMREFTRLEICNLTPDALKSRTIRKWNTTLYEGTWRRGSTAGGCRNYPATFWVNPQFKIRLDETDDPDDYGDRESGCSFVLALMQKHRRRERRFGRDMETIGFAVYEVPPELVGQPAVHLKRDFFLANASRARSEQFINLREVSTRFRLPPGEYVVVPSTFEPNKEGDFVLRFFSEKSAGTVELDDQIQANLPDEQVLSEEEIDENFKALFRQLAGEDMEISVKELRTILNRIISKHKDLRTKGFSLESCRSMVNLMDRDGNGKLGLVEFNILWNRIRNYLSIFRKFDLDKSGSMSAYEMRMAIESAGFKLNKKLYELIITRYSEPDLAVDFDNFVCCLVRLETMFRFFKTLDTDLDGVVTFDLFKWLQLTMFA

MOLT-4 = experiment: Inhibitory concentration against MOLT-4 cells (human T-cell leukemia cell line)
[2] = molecular target: T1, Calpain-1 catalytic subunit; experiment: (§1) Inhibitory activity towards human calpain I
[3] = molecular target: T1, Calpain-1 catalytic subunit; experiment: as §1; remark: listed apart in the source
[4] = molecular target: T1, Calpain-1 catalytic subunit; experiment: Compound was evaluated for inhibitory activity towards human calpain I isomer 1

pIC50 [1]: 7.96
SMILES: CS(=O)(=O)NC(COCc1ccccc1)C(=O)N[C@H](C=O)Cc1ccccc1 (stereo partly specified)

pIC50 (MOLT-4): 5.70
SMILES: CN1C(C(=O)N[C@H](C=O)Cc2ccccc2)Cc2cc3c(cc2S1(=O)=O)OCCO3 (mixture of isomers)

pIC50 [2]: 6.30 | pIC50 (MOLT-4): 5.39
SMILES: CN1C(C(=O)N[C@H](C=O)Cc2ccccc2)Cc2cc(N3CCOCC3)ccc2S1(=O)=O (stereo partly specified)

pIC50 [2]: 6.70 | pIC50 [3]: 6.70
SMILES: CC(C)CN1C(C(=O)N[C@H](C=O)Cc2ccccc2)Cc2cc(Cl)ccc2S1(=O)=O (stereo partly specified)

pIC50 [2]: 6.00
SMILES: COc1cc2c(cc1OC)S(=O)(=O)N(Cc1ccccc1)C(C(=O)N[C@H](C=O)Cc1ccccc1)C2 (stereo partly specified)

pIC50 [2]: ~6.00 | pIC50 [4]: 7.07
SMILES: CN1C(=O)c2ccccc2CC1C(=O)N[C@H](C=O)Cc1ccccc1 (stereo partly specified)

pIC50 (MOLT-4): 5.74
SMILES: CN1C(C(=O)N[C@H](C=O)CCCCNS(=O)(=O)c2ccccc2)Cc2cc3c(cc2S1(=O)=O)OCCO3 (stereo partly specified)

pIC50 (MOLT-4): 5.77
SMILES: CN1C(C(=O)N[C@H](C=O)Cc2ccccc2)Cc2ccccc2S1(=O)=O (stereo partly specified)

pIC50 [2]: 6.10 | pIC50 [3]: 6.15
SMILES: COc1cc2c(cc1OC)S(=O)(=O)NC(C(=O)N[C@H](C=O)Cc1ccccc1)C2 (stereo partly specified)

pIC50 [4]: ~5.30
SMILES: O=C[C@H](Cc1ccccc1)NC(=O)C1Cc2ccccc2C(=O)N1 (stereo partly specified)

pIC50 (MOLT-4): 5.49
SMILES: COC1=C(C(=O)N[C@H](C=O)Cc2ccccc2)N(C)S(=O)(=O)c2ccccc21

pIC50 (MOLT-4): 5.66
SMILES: CN1C(C(=O)N[C@H](C=O)Cc2ccccc2)Cc2cc(Cl)ccc2S1(=O)=O (stereo partly specified)

pIC50 (MOLT-4): 6.05
SMILES: CN1C(C(=O)N[C@H](C=O)Cc2ccccc2)=Cc2cc3c(cc2S1(=O)=O)OCCO3

pIC50 [1]: 7.70
SMILES: O=C[C@H](Cc1ccccc1)NC(=O)C(Cc1ccccc1)NS(=O)(=O)c1ccccc1 (stereo partly specified)

pIC50 (MOLT-4): 5.66
SMILES: COc1cc2c(cc1OC)S(=O)(=O)OC(C(=O)N[C@H](C=O)Cc1ccccc1)C2 (mixture of isomers)

pIC50 (MOLT-4): 5.59
SMILES: CC(C)N1C(C(=O)N[C@H](C=O)Cc2ccccc2)Cc2cc3c(cc2S1(=O)=O)OCCO3 (mixture of isomers)

pIC50 (MOLT-4): 5.72
SMILES: COc1cc2c(cc1OC)S(=O)(=O)N(C)C(C(=O)N[C@H](C=O)Cc1ccccc1)C2 (stereo partly specified)
